Assay results from paper PMC9820279 (International Journal of Molecular Sciences, 2022).
Where two headings read alike, the source gives them in different places.

Assays:
[1] = cited from earlier work
[2] = parameters: method as in PMID 35782945, PMID 34869538, PMID 34209864, PMID 35498984, PMID 34923590; settings: previously studied by the group; cited from earlier work
LOX = test system: LOX; parameters: method as in PMID 35782945, PMID 34869538, PMID 34209864, PMID 35498984, PMID 34923590; settings: previously studied by the group; cited from earlier work
BChE = settings: previously studied by the group; cited from earlier work
AChE = settings: previously studied by the group; cited from earlier work
[3] = matrix ASFE extract 24 µg/mL, 4 h incubation, n.d = not detected in lower compartment
[4] = matrix ASFE extract 24 µg/mL, 2 h incubation, n.d = not detected in lower compartment

Procedure for HBMEC monolayer: The cell line HBMEC was used as a simplified in vitro model of the BBB endothelium. […] Endothelial cell cultures were maintained at 37 °C in a humid atmosphere enriched with 5% CO2. In our studies, HBMEC were used between passage 25 and 29. For experiments, HBMECs were seeded using a volume of 200 µL at a density of 8 × 10^4 cells/mL in rat tail collagen-I (100 µg/mL) coated 96-well plates (for viability assay) or 500 µL at a density of 1.6 × 10^5 cells/mL in rat tail collagen-I (100 µg/mL) coated semi-permeable membranes in transwell inserts (0.4 µm pore, Corning Costar Corp., USA; for BBB integrity and transport assays) for 12-well plates. The incubation timepoints were assay dependent.
For the transendothelial transport assays, HBMEC were seeded on transwell inserts as described above and are schematically depicted in Figure 1a. After seeding, the media were changed every two days. Four days post-seeding, the HBMEC monolayer was formed, and the transport studies were performed. […] Vupper and Vlower is the upper and lower compartment volume (0.5 and 1.5 mL, respectively). The culture inserts were used for the subsequent integrity permeability studies.

C[C@H]1[C@H](C)CC[C@]2(CO)CC[C@]3(C)C(=CC[C@@H]4[C@@]5(C)CC[C@H](O)C(C)(C)[C@@H]5CC[C@]43C)[C@H]12 [uvaol]
Detection in the PAMPA-BBB model ([1]; OL-SS extract compounds): detected in the acceptor well | Detection in basolateral compartment (brain side) of HBMEC-BBB model (HBMEC monolayer; OL-SS extract): detected

O=c1c(O[C@@H]2O[C@H](CO)[C@@H](O)[C@H](O)[C@H]2O)c(-c2ccc(O)c(O)c2)oc2cc(O)cc(O)c12 [Isoquercitrin]
Crossing of the in vitro PAMPA-BBB ([1]; PAMPA): not capable of crossing | Te % (SEM) 2 h (HBMEC monolayer; human, 2 h, 30 µg/mL): 6.0 (0.2) % | Te % (SEM) 4 h (HBMEC monolayer; human, 4 h, 30 µg/mL): 16.3 (1.3) %

C[C@H]1[C@H](C)CC[C@]2(C)CC[C@]3(C)C(=CC[C@@H]4[C@@]5(C)CC[C@H](O)C(C)(C)[C@@H]5CC[C@]43C)[C@H]12 [α-Amyrin]
Detection in the PAMPA-BBB model ([1]; OL-SS extract compounds): not detected | Detection in basolateral compartment (brain side) of HBMEC-BBB model (HBMEC monolayer; OL-SS extract): not detected

C=C(C)[C@@H]1CC[C@]2(C)CC[C@]3(C)[C@H](CC[C@@H]4[C@@]5(C)CC[C@H](OC(C)=O)C(C)(C)[C@@H]5CC[C@]43C)[C@@H]12 [Lupeol acetate]
Detection in the PAMPA-BBB model ([1]; OL-SS extract compounds): not detected | Detection in basolateral compartment (brain side) of HBMEC-BBB model (HBMEC monolayer; OL-SS extract): not detected

CC(C)=CCC/C(C)=C\CO [Nerol]
Crossing of the PAMPA-BBB system ([1]; PLE100 extract compounds): could not cross | Detection in basolateral compartment (brain side) of HBMEC-BBB model (HBMEC monolayer; PLE100 extract): detected in the basolateral compartment | Te % (SEM) 2 h (HBMEC monolayer; human): 26.8 (0.2) % | Te % (SEM) 4 h (HBMEC monolayer; human): 41.5 (3.1) %

O=C(/C=C/c1ccc(O)c(O)c1)O[C@@H](C(=O)O)[C@@H](O)C(=O)O [Caftaric acid]
Detection in the lower well of the PAMPA-BBB model ([1]; ASFE extract compounds): not detected in the lower well | Detection / transport to lower compartment (brain side) of HBMEC-BBB model (HBMEC monolayer): could reach the “brain side” | Te % (SEM) 2 h (HBMEC monolayer; human, 2 h, 24 µg/mL): 46.3 (3.6) % | Te % (SEM) 4 h (HBMEC monolayer; human, 4 h, 24 µg/mL): 87.6 (3.5) %

COc1cc(/C=C/C(=O)O)cc(OC)c1O [Sinapic acid]
Detection in the lower well of the PAMPA-BBB model ([1]; ASFE extract compounds): not detected in the lower well | Crossing of the in vitro PAMPA-BBB ([1]; T33 extract compounds): not capable of crossing | Te % (SEM) 2 h (HBMEC monolayer): 35.6 (2.0)/n.d % | Te % (SEM) 4 h (HBMEC monolayer): 44.4 (3.2)/18.6 (0.5) % | Detection / transport to lower compartment (brain side) of HBMEC-BBB model (HBMEC monolayer; ASFE extract): could reach the “brain side” | Te % (SEM) 4 h (HBMEC monolayer; [3]): 44.4 (3.2)/18.6 (0.5) %

CC(C)=CCC/C(C)=C/CC/C(C)=C/CC/C=C(\C)CC/C=C(\C)CCC=C(C)C [Squalene]
Crossing of the PAMPA-BBB system ([1]; PLE100 extract compounds): could not cross | Detection in basolateral compartment (brain side) of HBMEC-BBB model (HBMEC monolayer; PLE100 extract): detected in the basolateral compartment | Te % (SEM) 2 h (HBMEC monolayer; matrix OL-SS extract 40 µg/mL, 2 h incubation, n.d = not detected in lower compartment): 24.1 (1.4) % | Te % (SEM) 4 h (HBMEC monolayer; matrix OL-SS extract 40 µg/mL, 4 h incubation, n.d = not detected in lower compartment): 33.2 (0.9) % | Te % (SEM) 2 h (HBMEC monolayer; matrix PLE100 extract 15 µg/mL, 2 h incubation, n.d = not detected in lower compartment): 19.1 (1.4) % | Te % (SEM) 4 h (HBMEC monolayer; matrix PLE100 extract 15 µg/mL, 4 h incubation, n.d = not detected in lower compartment): 47.6 (1.5) %

CC(CC(=O)C[C@@H](C)[C@H]1C[C@H](O)[C@@]2(C)C3=C(C(=O)C[C@]12C)[C@@]1(C)CC[C@H](O)C(C)(C)[C@@H]1CC3)C(=O)O (stereo partly shown) [Ganolucidic acid B]
Detection in the lower well of the PAMPA-BBB model ([1]; ASFE extract compounds): not detected in the lower well | Detection / transport to lower compartment (brain side) of HBMEC-BBB model (HBMEC monolayer; ASFE extract): could reach the “brain side” | Te % (SEM) 2 h (HBMEC monolayer; [4]): 28.4 (1.1) % | Te % (SEM) 4 h (HBMEC monolayer; [3]): 28.6 (1.5) %

O=C1c2c(O)cc(O)cc2O[C@H](c2ccc(O)cc2)[C@H]1O [Aromadendrin]
Detection in the lower well of the PAMPA-BBB model ([1]; ASFE extract compounds): not detected in the lower well | Detection / transport to lower compartment (brain side) of HBMEC-BBB model (HBMEC monolayer; ASFE extract): could reach the “brain side” | Te % (SEM) 2 h (HBMEC monolayer; [4]): 76.2 (0.8) % | Te % (SEM) 4 h (HBMEC monolayer; [3]): 78.7 (0.7) %

C[C@@H]1CCCC2=CC[C@@H]3[C@@H](C3(C)C)[C@]21C [(-)-Aristolene]
Crossing of the PAMPA-BBB system ([1]; PLE100 extract compounds): could not cross | Te % (SEM) 2 h (HBMEC monolayer): 39.7 (0.4) % | Te % (SEM) 4 h (HBMEC monolayer): 71.3 (1.6) % | Detection in basolateral compartment (brain side) of HBMEC-BBB model (HBMEC monolayer; PLE100 extract): detected in the basolateral compartment

O=c1oc2c(O)c(O)cc3c(=O)oc4c(O)c(O)cc1c4c23 [Ellagic acid]
Detection in the lower well of the PAMPA-BBB model ([1]; ASFE extract compounds): not detected in the lower well | Detection / transport to lower compartment (brain side) of HBMEC-BBB model (HBMEC monolayer): could reach the “brain side” | Te % (SEM) 2 h (HBMEC monolayer; human, 2 h, 24 µg/mL): 42.4 (1.6) % | Te % (SEM) 4 h (HBMEC monolayer; human, 4 h, 24 µg/mL): 85.5 (2.5) %

Oc1cccc(O)c1O [Pyrogallol]
Detection in the lower well of the PAMPA-BBB model ([1]; ASFE extract compounds): not detected in the lower well | Detection / transport to lower compartment (brain side) of HBMEC-BBB model (HBMEC monolayer): could reach the “brain side” | Te % (SEM) 2 h (HBMEC monolayer; human, 2 h, 24 µg/mL): 37.6 (2.6) % | Te % (SEM) 4 h (HBMEC monolayer; human, 4 h, 24 µg/mL): 80.5 (1.1) %

O=C1O[C@H]([C@@H](O)CO)C(O)=C1O [Ascorbic acid]
RNS IC50 [2]: 1100.9 µg/mL

O=c1c(O)c(-c2ccc(O)c(O)c2)oc2cc(O)cc(O)c12 [Quercetin]
LOX IC50 (LOX): 125.7 µg/mL

COc1ccc2c3c1O[C@H]1C[C@@H](O)C=C[C@@]31CCN(C)C2 [Galantamine]
BChE IC50 (BChE): 2.36 µg/mL | AChE IC50 (AChE): 0.40 µg/mL

Oc1ccc(/C=C/c2cc(O)cc3c2[C@@H](c2cc(O)cc(O)c2)[C@H](c2ccc(O)cc2)O3)cc1 [e-viniferin]
Detection in the lower well of the PAMPA-BBB model ([1]; ASFE extract compounds): not detected in the lower well | Detection / transport to lower compartment (brain side) of HBMEC-BBB model (HBMEC monolayer; ASFE extract): could reach the “brain side” | Te % (SEM) 2 h (HBMEC monolayer; [4]): 39.2 (2.2) % | Te % (SEM) 4 h (HBMEC monolayer; [3]): 45.9 (3.0) %

CC1(C)CC[C@]2(C)CC[C@]3(C)C(=CC[C@@H]4[C@@]5(C)CC[C@H](O)C(C)(C)[C@@H]5CC[C@]43C)[C@@H]2C1 [β-Amyrin]
Crossing of the PAMPA-BBB system ([1]; PAMPA): not detected | Detection in the PAMPA-BBB model ([1]; PAMPA): not detected | Detection in basolateral compartment (brain side) of HBMEC-BBB model (HBMEC monolayer; OL-SS extract): not detected | Detection in basolateral compartment (brain side) of HBMEC-BBB model (HBMEC monolayer; PLE100 extract): not detected

COc1cc(/C=C/C(=O)O)ccc1O [Ferulic acid]
Detection in the lower well of the PAMPA-BBB model ([1]; ASFE extract compounds): not detected in the lower well | Detection / transport to lower compartment (brain side) of HBMEC-BBB model (HBMEC monolayer; ASFE extract): could reach the “brain side” | Te % (SEM) 4 h (HBMEC monolayer; [3]): 9.1 (0.3) %

Oc1cc(O)c2c(c1)O[C@H](c1ccc(O)c(O)c1)[C@H](O)[C@H]2c1c(O)cc(O)c2c1O[C@H](c1ccc(O)c(O)c1)[C@H](O)C2 [Procyanidin B2]
Detection in the lower well of the PAMPA-BBB model ([1]; PAMPA): not detected in the lower well | Detection / transport to lower compartment (brain side) of HBMEC-BBB model (HBMEC monolayer; ASFE extract): could reach the “brain side” | Te % (SEM) 2 h (HBMEC monolayer; [4]): 56.8 (0.0) % | Te % (SEM) 4 h (HBMEC monolayer; [3]): 61.9 (2.6) %

C=CC(C)(O)CCCC(C)CCCC(C)CCCC(C)C (stereo not shown) [Isophytol]
Te % (SEM) 2 h (HBMEC monolayer): 15.6 (1.0) % | Te % (SEM) 4 h (HBMEC monolayer): 58.0 (1.7) %
